Laboratory results reported in US20220339143A1, “TAK-925 FOR USE IN TREATING NARCOLEPSY” (Takeda Pharmaceutical Company Limited, priority 2019, published 2022).
Read-outs that look alike come from different tables or passages of the source.

Test: Single dose PK in healthy subjects (Cohorts 1, 2, S1 and S2), plasma
Format: in vivo, human
Settings: human, plasma, iv; for concentration at 3 h after end of infusion: 3 hr After End of Infusions; for concentration at 4 h after end of infusion: 4 hr After End of Infusions; for concentration at 6 h after end of infusion: 6 hr After End of Infusions; for concentration at 10 h after end of infusion: 10 hr After End of Infusions; for concentration at 15 h after end of infusion: 15 hr After End of Infusions
Description: This study investigates (i) the safety and tolerability of Compound A (methyl (2R,3S)-3-((methylsulfonyl)amino)-2-(((cis-4-phenylcyclohexyl)oxy)methyl)piperidine-1-carboxylate) when a single dose given as a 9 hour continuous IV infusion is administered to healthy adults, healthy elderly subjects and patients with narcolepsy type 1 (NT1); (ii) the pharmacokinetics of Compound A when a single dose given as a 9 hour continuous IV infusion is administered to healthy adults, healthy elderly subjects and patients with narcolepsy type 1; and (iii) the pharmacodynamics (PD) effects of Compound A, primarily by evaluation of the sleep latency on MWT when a single dose given as a 9 hour continuous IV infusion is administered to patients with narcolepsy type 1.
Pharmacokinetics: Concentrations of Compound A in plasma, and CSF, and pharmacokinetics parameters.
On average, the time to reach the plateau appeared to be approximately 3 to 4 hours after the start of infusion. […] After switching off the IV infusion, Compound A plasma concentrations declined rapidly and in a biphasic manner with a mean terminal disposition phase t1/2z ranging approximately from 3.4 to 5.1 hours across all doses. […] Table 5 provides a summary of plasma concentrations of Compound A after a single IV infusion in healthy subjects. Table 6 provides a summary of pharmacokinetic parameters of Compound A after a single IV infusion in healthy subjects.

[1] = 240 mg, 240 mg single IV infusion, read-out: Plasma Concentration of Cmpd A, Maximum
[2] = 240 mg, 240 mg single IV infusion, read-out: Plasma Concentration of Cmpd A, Median
[3] = 240 mg, 240 mg single IV infusion, read-out: Plasma Concentration of Cmpd A, Q3
[4] = 240 mg, 240 mg single IV infusion, read-out: Plasma Concentration of Cmpd A, Q1

## COC(=O)N1CCC[C@H](NS(C)(=O)=O)[C@@H]1CO[C@H]1CC[C@@H](c2ccccc2)CC1 [Compound A, methyl (2R,3S)-3-((methylsulfonyl)amino)-2-(((cis-4-phenylcyclohexyl)oxy)methyl)piperidine-1-carboxylate]
134.4 mg, 134.4 mg single IV infusion, healthy subjects, read-out: Cmax Geo Mean
  Cmax: 305 ng/mL
134.4 mg, 134.4 mg single IV infusion, healthy subjects, read-out: Cmax Mean
  Cmax: 308 ng/mL
134.4 mg, 134.4 mg single IV infusion, healthy subjects, read-out: Cmax Median
  Cmax: 314 ng/mL
134.4 mg, 134.4 mg single IV infusion, healthy subjects, read-out: Vss Mean
  Vd: 88.5 L
134.4 mg, 134.4 mg single IV infusion, healthy subjects, read-out: Vss Median
  Vd: 87 L
134.4 mg, 134.4 mg single IV infusion, healthy subjects, read-out: Vz Mean
  Vd: 285 L
134.4 mg, 134.4 mg single IV infusion, healthy subjects, read-out: Vz Median
  Vd: 276 L
134.4 mg, 134.4 mg single IV infusion, healthy subjects, read-out: tmax Mean
  Tmax: 6.33 h
134.4 mg, 134.4 mg single IV infusion, healthy subjects, read-out: tmax Median
  Tmax: 6.5 h
180 mg, 180 mg single IV infusion, healthy subjects, read-out: AUC24 Geo Mean
  AUC: 2990 ng·h/mL
180 mg, 180 mg single IV infusion, healthy subjects, read-out: AUC24 Mean
  AUC: 3000 ng·h/mL
180 mg, 180 mg single IV infusion, healthy subjects, read-out: AUC24 Median
  AUC: 3040 ng·h/mL
180 mg, 180 mg single IV infusion, healthy subjects, read-out: AUCinf Geo Mean
  AUC(0-inf): 3010 ng·h/mL
180 mg, 180 mg single IV infusion, healthy subjects, read-out: AUCinf Mean
  AUC(0-inf): 3020 ng·h/mL
180 mg, 180 mg single IV infusion, healthy subjects, read-out: AUCinf Median
  AUC(0-inf): 3050 ng·h/mL
180 mg, 180 mg single IV infusion, healthy subjects, read-out: AUClast Geo Mean
  AUC(0-t): 2990 ng·h/mL
180 mg, 180 mg single IV infusion, healthy subjects, read-out: AUClast Mean
  AUC(0-t): 3000 ng·h/mL
180 mg, 180 mg single IV infusion, healthy subjects, read-out: AUClast Median
  AUC(0-t): 3040 ng·h/mL
180 mg, 180 mg single IV infusion, healthy subjects, read-out: CL Mean (converted)
  clearance: 997 mL/min
180 mg, 180 mg single IV infusion, healthy subjects, read-out: CL Median (converted)
  clearance: 985 mL/min
180 mg, 180 mg single IV infusion, healthy subjects, read-out: Ceoi Geo Mean
  concentration at 9 h: 324 ng/mL
180 mg, 180 mg single IV infusion, healthy subjects, read-out: Ceoi Mean
  concentration at 9 h: 325 ng/mL
180 mg, 180 mg single IV infusion, healthy subjects, read-out: Ceoi Median
  concentration at 9 h: 316 ng/mL
180 mg, 180 mg single IV infusion, healthy subjects, read-out: Cmax Geo Mean
  Cmax: 344 ng/mL
180 mg, 180 mg single IV infusion, healthy subjects, read-out: Cmax Mean
  Cmax: 345 ng/mL
180 mg, 180 mg single IV infusion, healthy subjects, read-out: Cmax Median
  Cmax: 358 ng/mL
180 mg, 180 mg single IV infusion, healthy subjects, read-out: Vss Mean
  Vd: 90.8 L
180 mg, 180 mg single IV infusion, healthy subjects, read-out: Vss Median
  Vd: 81.5 L
180 mg, 180 mg single IV infusion, healthy subjects, read-out: Vz Mean
  Vd: 291 L
180 mg, 180 mg single IV infusion, healthy subjects, read-out: Vz Median
  Vd: 268 L
180 mg, 180 mg single IV infusion, healthy subjects, read-out: tmax Mean
  Tmax: 6.33 h
180 mg, 180 mg single IV infusion, healthy subjects, read-out: tmax Median
  Tmax: 6.5 h
240 mg, 240 mg single IV infusion, healthy subjects, read-out: AUC24 Geo Mean
  AUC: 4540 ng·h/mL
240 mg, 240 mg single IV infusion, healthy subjects, read-out: AUC24 Mean
  AUC: 4580 ng·h/mL
240 mg, 240 mg single IV infusion, healthy subjects, read-out: AUC24 Median
  AUC: 4400 ng·h/mL
240 mg, 240 mg single IV infusion, healthy subjects, read-out: AUCinf Geo Mean
  AUC(0-inf): 4580 ng·h/mL
240 mg, 240 mg single IV infusion, healthy subjects, read-out: AUCinf Mean
  AUC(0-inf): 4630 ng·h/mL
240 mg, 240 mg single IV infusion, healthy subjects, read-out: AUCinf Median
  AUC(0-inf): 4430 ng·h/mL
240 mg, 240 mg single IV infusion, healthy subjects, read-out: AUClast Geo Mean
  AUC(0-t): 4540 ng·h/mL
240 mg, 240 mg single IV infusion, healthy subjects, read-out: AUClast Mean
  AUC(0-t): 4580 ng·h/mL
240 mg, 240 mg single IV infusion, healthy subjects, read-out: AUClast Median
  AUC(0-t): 4400 ng·h/mL
240 mg, 240 mg single IV infusion, healthy subjects, read-out: CL Mean (converted)
  clearance: 880 mL/min
240 mg, 240 mg single IV infusion, healthy subjects, read-out: CL Median (converted)
  clearance: 906 mL/min
240 mg, 240 mg single IV infusion, healthy subjects, read-out: Ceoi Geo Mean
  concentration at 9 h: 493 ng/mL
240 mg, 240 mg single IV infusion, healthy subjects, read-out: Ceoi Mean
  concentration at 9 h: 497 ng/mL
240 mg, 240 mg single IV infusion, healthy subjects, read-out: Ceoi Median
  concentration at 9 h: 481 ng/mL
240 mg, 240 mg single IV infusion, healthy subjects, read-out: Cmax Geo Mean
  Cmax: 506 ng/mL
240 mg, 240 mg single IV infusion, healthy subjects, read-out: Cmax Mean
  Cmax: 512 ng/mL
240 mg, 240 mg single IV infusion, healthy subjects, read-out: Cmax Median
  Cmax: 483 ng/mL
240 mg, 240 mg single IV infusion, healthy subjects, read-out: Vss Mean
  Vd: 97.5 L
240 mg, 240 mg single IV infusion, healthy subjects, read-out: Vz Mean
  Vd: 313 L
240 mg, 240 mg single IV infusion, healthy subjects, read-out: Vz Median
  Vd: 293 L
240 mg, 240 mg single IV infusion, healthy subjects, read-out: tmax Mean
  Tmax: 5.33 h
240 mg, 240 mg single IV infusion, healthy subjects, read-out: tmax Median
  Tmax: 4 h
240 mg, 240 mg single IV infusion, 0.5 hr, read-out: Plasma Concentration of Cmpd A, Maximum
  concentration at 0.5 h: 400 ng/mL
240 mg, 240 mg single IV infusion, 0.5 hr, read-out: Plasma Concentration of Cmpd A, Median
  concentration at 0.5 hr: 264 ng/mL
240 mg, 240 mg single IV infusion, 0.5 hr, read-out: Plasma Concentration of Cmpd A, Q3
  concentration at 0.5 hr: 368 ng/mL
240 mg, 240 mg single IV infusion, 1 hr, read-out: Plasma Concentration of Cmpd A, Maximum
  concentration at 1 h: 465 ng/mL
240 mg, 240 mg single IV infusion, 1 hr, read-out: Plasma Concentration of Cmpd A, Median
  concentration at 1 hr: 318 ng/mL
240 mg, 240 mg single IV infusion, 1 hr, read-out: Plasma Concentration of Cmpd A, Q3
  concentration at 1 hr: 418 ng/mL
240 mg, 240 mg single IV infusion, 1.5 hr, read-out: Plasma Concentration of Cmpd A, Maximum
  concentration at 1.5 h: 480 ng/mL
240 mg, 240 mg single IV infusion, 1.5 hr, read-out: Plasma Concentration of Cmpd A, Median
  concentration at 1.5 hr: 370 ng/mL
240 mg, 240 mg single IV infusion, 1.5 hr, read-out: Plasma Concentration of Cmpd A, Q3
  concentration at 1.5 hr: 463 ng/mL
240 mg, 240 mg single IV infusion, 2 hr, read-out: Plasma Concentration of Cmpd A, Maximum
  concentration at 2 h: 482 ng/mL
240 mg, 240 mg single IV infusion, 2 hr, read-out: Plasma Concentration of Cmpd A, Median
  concentration at 2 hr: 399 ng/mL
240 mg, 240 mg single IV infusion, 2 hr, read-out: Plasma Concentration of Cmpd A, Q3
  concentration at 2 hr: 452 ng/mL
[1]
  concentration at 3 h after end of infusion: 91 ng/mL
  concentration at 4 h after end of infusion: 65.1 ng/mL
  concentration at 6 h after end of infusion: 38.2 ng/mL
  concentration at 10 h after end of infusion: 18.6 ng/mL
  concentration at 15 h after end of infusion: 9.71 ng/mL
[2]
  concentration at 3 h after end of infusion: 75.5 ng/mL
  concentration at 4 h after end of infusion: 56.5 ng/mL
  concentration at 6 h after end of infusion: 28.4 ng/mL
  concentration at 10 h after end of infusion: 16.6 ng/mL
  concentration at 15 h after end of infusion: 7.64 ng/mL
[3]
  concentration at 3 h after end of infusion: 87.1 ng/mL
  concentration at 4 h after end of infusion: 62.7 ng/mL
  concentration at 6 h after end of infusion: 36.9 ng/mL
  concentration at 10 h after end of infusion: 17.5 ng/mL
  concentration at 15 h after end of infusion: 8.82 ng/mL
240 mg, 240 mg single IV infusion, 3 hr, read-out: Plasma Concentration of Cmpd A, Maximum
  concentration at 3 h: 582 ng/mL
240 mg, 240 mg single IV infusion, 3 hr, read-out: Plasma Concentration of Cmpd A, Median
  concentration at 3 hr: 422 ng/mL
240 mg, 240 mg single IV infusion, 3 hr, read-out: Plasma Concentration of Cmpd A, Q3
  concentration at 3 h: 515 ng/mL
[4]
  concentration at 4 h after end of infusion: 53.1 ng/mL
  concentration at 6 h after end of infusion: 23 ng/mL
  concentration at 10 h after end of infusion: 10.3 ng/mL
  concentration at 15 h after end of infusion: 3.39 ng/mL
240 mg, 240 mg single IV infusion, 4 hr, read-out: Plasma Concentration of Cmpd A, Maximum
  concentration at 4 h: 650 ng/mL
240 mg, 240 mg single IV infusion, 4 hr, read-out: Plasma Concentration of Cmpd A, Median
  concentration at 4 hr: 459 ng/mL
240 mg, 240 mg single IV infusion, 4 hr, read-out: Plasma Concentration of Cmpd A, Q3
  concentration at 4 h: 579 ng/mL
240 mg, 240 mg single IV infusion, 6 hr, read-out: Plasma Concentration of Cmpd A, Maximum
  concentration at 6 h: 532 ng/mL
240 mg, 240 mg single IV infusion, 6 hr, read-out: Plasma Concentration of Cmpd A, Median
  concentration at 6 hr: 410 ng/mL
240 mg, 240 mg single IV infusion, 6 hr, read-out: Plasma Concentration of Cmpd A, Q3
  concentration at 6 h: 514 ng/mL
240 mg, 240 mg single IV infusion, 8 hr, read-out: Plasma Concentration of Cmpd A, Maximum
  concentration at 8 h: 562 ng/mL
240 mg, 240 mg single IV infusion, 8 hr, read-out: Plasma Concentration of Cmpd A, Median
  concentration at 8 hr: 470 ng/mL
240 mg, 240 mg single IV infusion, 8 hr, read-out: Plasma Concentration of Cmpd A, Q3
  concentration at 8 hr: 542 ng/mL
240 mg, 240 mg single IV infusion, 9 hr, read-out: Plasma Concentration of Cmpd A, Maximum
  concentration at 9 h: 613 ng/mL
240 mg, 240 mg single IV infusion, 9 hr, read-out: Plasma Concentration of Cmpd A, Median
  concentration at 9 hr: 481 ng/mL
240 mg, 240 mg single IV infusion, 9 hr, read-out: Plasma Concentration of Cmpd A, Q3
  concentration at 9 hr: 539 ng/mL
IV administration, healthy subjects, read-out: mean estimates of plasma clearance
  clearance: 717 to 1000 mL/min
